These results are taken from US10526345B2, “Compounds as GPR119 agonists” (Mankind Pharma Ltd., priority 2016, dated 2020).

Where only a bound is given, the exact number is not on record here.

For one experiment, the target named is T1, hGPR119 (Homo sapiens, UniProt Q8TDV5).
T1 construct: expressed in transfected cells; host or cells: CHO
T1 sequence (Q8TDV5 1-335): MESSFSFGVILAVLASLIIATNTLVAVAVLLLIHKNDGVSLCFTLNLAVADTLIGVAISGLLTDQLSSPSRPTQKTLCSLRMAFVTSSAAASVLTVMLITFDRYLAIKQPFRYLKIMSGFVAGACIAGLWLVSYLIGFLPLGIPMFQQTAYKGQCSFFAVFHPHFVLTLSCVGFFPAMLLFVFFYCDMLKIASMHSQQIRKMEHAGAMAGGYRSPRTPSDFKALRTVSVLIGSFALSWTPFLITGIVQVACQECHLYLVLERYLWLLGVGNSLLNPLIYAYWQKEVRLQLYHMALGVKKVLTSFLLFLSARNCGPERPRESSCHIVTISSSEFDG
As to the kind of experiment: In vitro cyclic AMP assay (Cisbio dynamic 2 HTRF kit) in CHO-hGPR119 cells. The format is cell-based. The conditions noted are these: cAMP; for activation at 1 µM: 1 h, compound at 1 μM, 60 min, read-out: Induction (% induction at 1 μM). Background: In TR-FRET formats the signal depends on donor and acceptor labels being close together.

In another experiment the test system is Male C57BL/6 mice. As to the kind of experiment: Oral glucose tolerance test in C57BL/6 mice. The format is in vivo. The conditions noted are these: 3 mpk and 10 mpk, glucose 2 g/kg. Here is the method:
(§1) Male C57BL/6 mice (8-10 weeks) were grouped based on basal glucose levels and animals were fasted for 16 hours. Glucose level of each animal was estimated in blood collected from tail vein before animals were dosed orally with 0.5% Tween 80 and 0.5% NaCMC (vehicle control) and compounds at 3 and 10 mpk (n=5). After 30 minutes of compound dosing, blood glucose was again estimated and 2 g/kg/10 ml (20%) of Glucose solution was administered orally to all the animals. Blood glucose was estimated at 15, 30, 60, 90 and 120 minutes time points after glucose administration. Accu-Check active blood glucose meter was utilised for estimation of blood from tail vein.
Glucose reduction observed in animals treated with compounds of present invention is represented in terms of % AUC reduction. A greater glucose reduction in oral glucose tolerance test indicates the compound's efficacy in this rodent species.

A further experiment deals with Male SD rats. As to the kind of experiment: Oral glucose tolerance test in Sprague-Dawley rats. The format is in vivo. The settings on record: 3 mpk and 10 mpk, glucose 2 g/kg. Here is the method: as §1, with “SD rats” for “C57BL/6 mice”
Glucose reduction observed in animals treated with GPR119 agonists is represented in terms of % AUC reduction. A greater glucose reduction in oral glucose tolerance test indicates the compound's efficacy in this rodent species.

A word on the EC50: it is the midpoint of the concentration-response curve. High values mean a need for much substance, low ones an effect from little substance. For the molecule `CCc1cnc(N2CCC([C@H](C)Oc3nc4ccc(-c5cnc(Cl)nc5)nc4s3)CC2)nc1` [Compound 1135, 2-((S)-1-(1-(5-ethylpyrimidin-2-yl)piperidin-4-yl)ethoxy)-5-(2-chloropyrimidin-5-yl)thiazolo[5,4-b]pyridine], the activation at 1 µM on hGPR119 was 86%. At hGPR119, this molecule yielded a concentration giving a half-maximal response (EC50) of less than 25 nM. For the same molecule, the “glucose reduction (% AUC reduction) in oral glucose tolerance test” value (shortened to “glucose reduction (% AUC reduction)”) in the experiment with Male C57BL/6 mice and in the experiment with Male SD rats was “significant dose dependent glucose reduction” in each case.

For `CCc1cnc(N2CCC([C@H](C)Oc3nc4ccc(-c5ccc(S(C)(=O)=O)nc5)nc4s3)CC2)nc1` [Compound 1106, (S)-2-(1-(1-(5-ethylpyrimidin-2-yl)piperidin-4-yl)ethoxy)-5-(6-(methylsulfonyl)pyridin-3-yl)thiazolo[5,4-b]pyridine], at hGPR119, the activation at 1 µM stood at 75% and the EC50 is less than 25 nM. Besides, the “glucose reduction (% AUC reduction)” value with Male C57BL/6 mice was “significant dose dependent glucose reduction”. Also, in the experiment on Male SD rats, the “glucose reduction (% AUC reduction)” value is reported as “significant dose dependent glucose reduction”.

Consider `CC(C)c1noc(N2CCC([C@H](C)Oc3nc4ccc(-c5ccc(S(C)(=O)=O)nc5)nc4s3)CC2)n1` [Compound 1082, (S)-3-isopropyl-5-(4-(1-((5-(6-(methylsulfonyl)pyridin-3-yl)thiazolo[5,4-b]pyridin-2-yl)oxy)ethyl)piperidin-1-yl)-1,2,4-oxadiazole], for which, on hGPR119, the activation at 1 µM is 82% and the EC50 was less than 25 nM. Also, the “glucose reduction (% AUC reduction)” value in the experiment on Male C57BL/6 mice was “significant dose dependent glucose reduction”. Besides, in the experiment on Male SD rats, the “glucose reduction (% AUC reduction)” value is given as “significant dose dependent glucose reduction”.

As to `CCc1cnc(N2CCC([C@H](C)Oc3nc4ccc(-c5ccnc(F)c5)nc4s3)CC2)nc1` [Compound 1104, (S)-2-(1-(1-(5-ethylpyrimidin-2-yl)piperidin-4-yl)ethoxy)-5-(2-fluoropyridin-4-yl)thiazolo[5,4-b]pyridine], on hGPR119, the activation at 1 µM was determined as 84% and the EC50 was 25 to 50 nM. In the experiment with Male C57BL/6 mice, the “glucose reduction (% AUC reduction)” value is “significant dose dependent glucose reduction”.

Regarding `CC(C)c1noc(N2CCC([C@H](C)Oc3nc4ccc(-c5cnc(Cl)nc5)nc4s3)CC2)n1` [Compound 1119, (S)-5-(4-(1-((5-(2-chloropyrimidin-5-yl)thiazolo[5,4-b]pyridin-2-yl)oxy)ethyl)piperidin-1-yl)-3-isopropyl-1,2,4-oxadiazole], the activation at 1 µM at hGPR119 worked out at 75%. On hGPR119, this molecule returned an EC50 of less than 25 nM. The “glucose reduction (% AUC reduction)” value in the experiment on Male C57BL/6 mice and with Male SD rats was “significant dose dependent glucose reduction” each time.

For the molecule `CCCc1cnc(N2CCC([C@H](C)Oc3nc4ccc(-c5ccc(S(C)(=O)=O)nc5)nc4s3)CC2)nc1` [Compound 1099, (S)-5-(6-(methylsulfonyl)pyridin-3-yl)-2-(1-(1-(5-propylpyrimidin-2-yl)piperidin-4-yl)ethoxy)thiazolo[5,4-b]pyridine], at hGPR119, the activation at 1 µM came out at 81% and the concentration for a half-maximal effect (EC50) is less than 25 nM. For the same molecule, the “glucose reduction (% AUC reduction)” value in the experiment with Male C57BL/6 mice was “significant dose dependent glucose reduction”. For the same molecule, the “glucose reduction (% AUC reduction)” value in the experiment on Male SD rats was “significant dose dependent glucose reduction”.
